Assay results published in the OligoGym collection.
Several values for one entry are separate records, joined by “and”; a condition that tells them apart may be missing. Equal values may be shown once. After the bases stand the sugars from the 5' end (letter, count) and the backbone: PS all phosphorothioate, else s phosphorothioate and o phosphodiester by linkage. Methylation of C is not given here. k = constrained ethyl (cEt); d = 2'-deoxy (DNA)

Biological target: MALAT1
Conditions: ASO, A431, 0.005 µM

| Sequence | target mRNA inhibition |
| --- | --- |
| CACAAGGATCCAAGCT (sugars k3 d10 k3, PS) | 18% |
| CGCAGGGATTTGAACC (sugars k3 d10 k3, PS) | 15% |
| AGAGTGTTCGCAGACA (sugars k3 d10 k3, PS) | 57% |
| ATTAAATTGATGGGCT (sugars k3 d10 k3, PS) | 20% |
| AAACTAAGCTACTATA (sugars k3 d10 k3, PS) | -17% |
| ACCCGGAAATCGGCCT (sugars k3 d10 k3, PS) | -6% |
| TGCTTATTCCCCAATG (sugars k3 d10 k3, PS) | 52% |
| CAAAAAGTAGTTCTTC (sugars k3 d10 k3, PS) | -18% |
| TAAACGGGTCATCAAA (sugars k3 d10 k3, PS) | 34% |
| TCTAAATTGGTTCTGG (sugars k3 d10 k3, PS) | 55% and 64% |
| CAATCAAGTCAAGCTC (sugars k3 d10 k3, PS) | 3% |
| CATTACAGTTCTTGAA (sugars k3 d10 k3, PS) | 41% |
| CCCACAGGAACAAGTC (sugars k3 d10 k3, PS) | 14% |
| TTAAGTTGGTAATTAC (sugars k3 d10 k3, PS) | -6% |
| GGACGGTTGAGAAGTG (sugars k3 d10 k3, PS) | -4% |
| AATACGACTGCTTAAA (sugars k3 d10 k3, PS) | 30% |
| TAAATTGGTAGCTTTC (sugars k3 d10 k3, PS) | 74% and 80% |
| GAAAACCCACTCTTGG (sugars k3 d10 k3, PS) | 10% |
| CTCGGGCTGCAGGCTG (sugars k3 d10 k3, PS) | 19% |
| GCAAGGTCTCATACAC (sugars k3 d10 k3, PS) | 48% and 59% |
| TATCTGTTAACAGCTG (sugars k3 d10 k3, PS) | 41% |
| TTAGGTATGAGCTTCA (sugars k3 d10 k3, PS) | 18% |
| GAAATCCCTTCAGGAT (sugars k3 d10 k3, PS) | 14% |

| Sequence | target mRNA inhibition |
| --- | --- |
| GCTTACAGATTTGCTG (sugars k3 d10 k3, PS) | 8% |
| TCTGATTATCCTGATA (sugars k3 d10 k3, PS) | 11% |
| CAGTTACACATCCAAA (sugars k3 d10 k3, PS) | 45% |
| TGAGTATAAGCCTGAA (sugars k3 d10 k3, PS) | 25% |
| GCCTACCACTCTAAGA (sugars k3 d10 k3, PS) | 29% |
| AGCCTTTATCACTCAG (sugars k3 d10 k3, PS) | 35% |
| ACTGCATTTACTTGCC (sugars k3 d10 k3, PS) | 8% |
| TTCACCAAGGAGCTGT (sugars k3 d10 k3, PS) | 37% |
| GCGCCGGGCTTCTGCG (sugars k3 d10 k3, PS) | 29% |
| TACCTTTTACTCTGAT (sugars k3 d10 k3, PS) | 42% |
| GTAAACCTGTGGTGGT (sugars k3 d10 k3, PS) | 56% and 60% |
| GCACGGGCTGTCTGCT (sugars k3 d10 k3, PS) | -12% |
| CACCCGGAAATCGGCC (sugars k3 d10 k3, PS) | -1% |
| CTTCGGTGCCTTTAGT (sugars k3 d10 k3, PS) | 23% |
| AAAGCCCACCCTCTAA (sugars k3 d10 k3, PS) | -26% |
| TAAGCCTTCGGTGCCT (sugars k3 d10 k3, PS) | 4% |
| GGGAGTTGAGGCAAGT (sugars k3 d10 k3, PS) | 6% |
| GGTTTAAGTTGGTTTT (sugars k3 d10 k3, PS) | 90% and 97% |
| TAATTACTCTTGATCT (sugars k3 d10 k3, PS) | 48% and 72% |
| TGCTAGTCCTCAGGAT (sugars k3 d10 k3, PS) | 19% |
| AGCTGCAGGCTATTAC (sugars k3 d10 k3, PS) | 39% |
| ATTGGTAGCTTTCATT (sugars k3 d10 k3, PS) | 70% and 83% |
| GTACATTTTGCCCTTA (sugars k3 d10 k3, PS) | 64% and 45% |

| Sequence | target mRNA inhibition |
| --- | --- |
| ACAGCTTATGGAACTT (sugars k3 d10 k3, PS) | 27% |
| ATCCCTTTACACCTCA (sugars k3 d10 k3, PS) | 36% |
| TCCGTAACTTTAAATT (sugars k3 d10 k3, PS) | 36% |
| GAACTCCACAGCTCTT (sugars k3 d10 k3, PS) | 33% |
| CCCGGAACTTTTAAAA (sugars k3 d10 k3, PS) | -7% |
| AGTTACATGTTCCCAC (sugars k3 d10 k3, PS) | 33% |
| GGAGGCAAAAAGTAGT (sugars k3 d10 k3, PS) | 9% |
| GGCTGACACTTCTCTT (sugars k3 d10 k3, PS) | 52% and 64% |
| AATTCGATCACCTTCC (sugars k3 d10 k3, PS) | 16% |
| CAAAAGCCCTCTCAGC (sugars k3 d10 k3, PS) | -14% |
| CAATGCCTACCGCACA (sugars k3 d10 k3, PS) | 16% |
| GTAGATTCCGTAACTT (sugars k3 d10 k3, PS) | 73% and 54% and 50% |
| ACAGAAGTCTCGGGCT (sugars k3 d10 k3, PS) | 19% |
| CCTCAGTTACACATCC (sugars k3 d10 k3, PS) | 49% |
| CATATTTTAAACGGGT (sugars k3 d10 k3, PS) | -16% |
| AGGATTCTAGACAGAC (sugars k3 d10 k3, PS) | 72% and 71% |
| CCCCAAGACCAAACTG (sugars k3 d10 k3, PS) | -9% |
| AGCTTGTTCACCTGTT (sugars k3 d10 k3, PS) | 37% |
| GCCCCTGCGCTGGCTG (sugars k3 d10 k3, PS) | 12% |
| CATTCAAGCTGAACTA (sugars k3 d10 k3, PS) | 39% |
| AATTGGTAGCTTTCAT (sugars k3 d10 k3, PS) | 64% and 81% |
| TTCTTCGCCTTCCCGT (sugars k3 d10 k3, PS) | 66% and 49% |
| CGGACTTTCTCCCCCA (sugars k3 d10 k3, PS) | -9% |

| Sequence | target mRNA inhibition |
| --- | --- |
| TTCCCATAATTGTAGT (sugars k3 d10 k3, PS) | 18% |
| GTAACCTATTGACTAT (sugars k3 d10 k3, PS) | 33% |
| TCTTGAGGGACAGTAG (sugars k3 d10 k3, PS) | -7% |
| AGGTTCTAGTTTTACT (sugars k3 d10 k3, PS) | 16% |
| TGAACCAAAGCTGCAC (sugars k3 d10 k3, PS) | 2% |
| GGTCTAGGATCCTCTA (sugars k3 d10 k3, PS) | 23% |
| ATACATCAAGGATGTA (sugars k3 d10 k3, PS) | 19% |
| GTCAAGACAACTGCAT (sugars k3 d10 k3, PS) | 3% |
| CTTTAAGTTCTCTGGC (sugars k3 d10 k3, PS) | 64% and 82% |
| CACTGGTACACCCAGT (sugars k3 d10 k3, PS) | 15% |
| TGGCATCAAGGCACTG (sugars k3 d10 k3, PS) | 49% |
| ACCACGAACTGCTGCT (sugars k3 d10 k3, PS) | 52% |
| TCCTATCTTCACCACG (sugars k3 d10 k3, PS) | 40% |
| AGCACCTGGGTCAGCT (sugars k3 d10 k3, PS) | -5% |
| GATTGTAAGCATTTAA (sugars k3 d10 k3, PS) | 54% and 67% |
| CGGTTAAAAATAGGTT (sugars k3 d10 k3, PS) | 6% |
| GCACTAAAGATCACTG (sugars k3 d10 k3, PS) | 23% |
| CAGGCTGGTTATGACT (sugars k3 d10 k3, PS) | 26% |
| TAACATAGTTCAACCC (sugars k3 d10 k3, PS) | 17% |
| ACAAACTTGCCATCTA (sugars k3 d10 k3, PS) | 39% |
| TCAATCCACTTGATCC (sugars k3 d10 k3, PS) | 14% |
| CTTCATGACCCTACTG (sugars k3 d10 k3, PS) | 36% |
| AATGGACATCTCTTCC (sugars k3 d10 k3, PS) | 27% |

| Sequence | target mRNA inhibition |
| --- | --- |
| ATTGGTTACCAATAAT (sugars k3 d10 k3, PS) | 4% |
| GGTAATTACTCTTGAT (sugars k3 d10 k3, PS) | 50% |
| CTTCAAGCACCGCTTG (sugars k3 d10 k3, PS) | 21% and 28% |
| CTCAGGGTTATGCTTA (sugars k3 d10 k3, PS) | 40% |
| TTAAAAGATCGCCTTC (sugars k3 d10 k3, PS) | 43% |
| GCCTGGAATTATTATA (sugars k3 d10 k3, PS) | 31% |
| CGCTAAGATGCTAGCT (sugars k3 d10 k3, PS) | -6% |
| ACTGAATCCACTTCTG (sugars k3 d10 k3, PS) | 35% |
| ACTGGGAATACTCTTC (sugars k3 d10 k3, PS) | 28% |
| GTACGAAACTCCCCCA (sugars k3 d10 k3, PS) | 38% |
| ACAAAACCCCCGGAAC (sugars k3 d10 k3, PS) | -153% |
| TTGAATTACTTCCGTT (sugars k3 d10 k3, PS) | 54% and 35% |
| GATCTTGAATTACTTC (sugars k3 d10 k3, PS) | 49% |
| AAAGGTTACCATAAGT (sugars k3 d10 k3, PS) | 5% |
| AAAGAGTGTTCGCAGA (sugars k3 d10 k3, PS) | 54% |
| CTGATTTTAAGGTTGC (sugars k3 d10 k3, PS) | 80% and 86% |
| TCATCAACAAAAGCCC (sugars k3 d10 k3, PS) | -8% |
| AATTACTTCCGTTACG (sugars k3 d10 k3, PS) | 43% |
| CGTCCCCATATAAATC (sugars k3 d10 k3, PS) | 1% |
| CTCACGGATTTTTACC (sugars k3 d10 k3, PS) | 7% |
| CTTCTATAGTCTGAAG (sugars k3 d10 k3, PS) | 18% |
| GTTACACCTTGAGTCA (sugars k3 d10 k3, PS) | 53% |
